The text below walks through data of PMC10760875, “Synthesis of alnustone-like diarylpentanoids via a 4 + 1 strategy and assessment of their potential anticancer activity” (Turkish Journal of Chemistry, 2023).

SMILES strings stand for the structures. Read-outs that look alike come from different tables or passages of the source.

Data set [1] deals with U87-MG cells (human glioblastoma). As to the kind of experiment: MTT cytotoxicity assay, U87-MG. The format is cell-based. As to conditions: for IC50: Homo sapiens, U-87 MG, MTT, 48 h, read-out: IC50 against U87-MG; for SI, U87-MG cells: SI = IC50 normal cells (HPAEpiC)/IC50 U87-MG. Here is the method:
(§1) GBM (U87-MG), breast cancer (MCF-7), prostate carcinoma (PC-3), and lung epithelium (HPAEpiC) cell lines were used to assess the cytotoxic action potential of compounds 5a–5l. The cells were grown in a single layer in flasks in appropriate medium containing 10% fetal bovine serum (FBS), 1% penicillin/streptomycin, and 1% L-glutamine at 37 °C and 5% CO2 to maintain the pH balance. Cells that had reached 70%–80% confluence were used in the experiments.
(§2) The 3-(4,5-dimethylthiazol-2-yl)-2,5-diphenyltetrazolium bromide (MTT) method is a widely used colorimetric method for the quantitative determination of cell viability. It is based on the reduction of the tetrazolium ring of the yellow dye MTT by living cells. As a result of the reduction, the tetrazolium ring breaks down to form a dark blue-violet formazan compound. Cell viability is then determined spectrophotometrically. The viability of untreated cells is assumed to be 100% and the viability of treated cells is determined as a percentage (%) according to those cells.
(§3) To each 96-well plate, 2 × 10^4 cells were seeded and treated with 6 different concentrations (3.125, 6.25, 12.5, 25, 50, and 100 mg/L) of the 12 tested compounds, and then the plates were incubated in a CO2 oven at 37 °C for 48 h. At the end of the incubation, 10 μL of the MTT mixture was added to each well using a pipette, which was then gently mixed for 1 min on a circular mixer. The cells were incubated in a CO2 oven at 37 °C for 3–4 h. The formazan that formed as a result of the incubation was seen as dark crystals at the bottoms of the wells. The culture medium was carefully aspirated from each well without dispersing the cell layer, and then 100 μL of dimethyl sulfoxide (DMSO) was added to each well and gently stirred on an orbital stirrer to dissolve the formazan crystals. Each sample was read at a wavelength of 570 nm in a spectrophotometer and absorbance values were obtained. A wavelength of 630 nm was used as the reference wavelength.
(§4) Percent viability and cytotoxicity values for each dose administered were calculated according to the following formulas:
(§5) • % Viability = (absorbance of the sample/absorbance of the control) × 100 • % Cytotoxicity = [1 – (absorbance of the sample/absorbance of the control)] × 100
(§6) The IC50 dose, as the concentration of inhibitor that caused a 50% decrease in cell viability, was calculated using Excel regression analysis.
(§7) Human GBM (U87-MG), breast cancer (MCF-7), prostate cancer (PC-3), and pulmonary alveolar epithelial cells (HPAEpiC) cell lines from the American Type Culture Collection (ATCC) were used for the cytotoxicity testing of compounds 5a–5l. The cells were grown as a single layer in appropriate medium containing 10% FBS, 1% penicillin/streptomycin, and 1% L-glutamine at 37 °C and 5% CO2 atmosphere.
(§8) The cytotoxicity analyses of all of the compounds were investigated by determining cell viability based on the colorimetric MTT assay, which was conducted according to the manufacturer’s guide. First, […] were seeded in a 96-well plate and then incubated at 37 °C in a 5% CO2 environment for 24 h. The medium was aspirated the following day, and […] of each concentration of the 12 tested compounds (3.125, 6.25, 12.5, 25, 50, and 100 mg/L) were separately added to each well. The plates were then incubated for 48 h at 37 °C with 5% CO2. Next, 10 μL of MTT solution was added to each well and the plate was incubated for 4 h. The culture medium was aspirated from the wells without dispersing the cell layer and then 100 μL of DMSO was added to each well and stirred on an orbital stirrer to dissolve the formazan crystals. Each sample was read at a wavelength of 570 nm in a spectrophotometer and absorbance values were obtained. A wavelength of 630 nm was used as the reference. Cell viability was expressed as a percentage compared to the untreated cells. All experiments were performed in triplicate.
Background: Tetrazolium assays rely on reduction of a dye to a coloured formazan, in cell work by metabolically active cells.

Data set [2] concerns MCF-7 cells (breast cancer). As to the kind of experiment: MTT cytotoxicity assay, MCF-7. The format is cell-based, human. Particulars: for SI, MCF-7 cells: SI = IC50 normal cells (HPAEpiC)/IC50 MCF-7; for IC50: MTT, 48 h, read-out: IC50 against MCF-7. Here is the method:
as §1, §2, §3, §4, §5, §6, §7, §8

In data set [3] the test system is PC-3 cells (prostate cancer). As to the kind of experiment: MTT cytotoxicity assay, PC-3. The format is cell-based, human. Particulars: for IC50: MTT, 48 h, read-out: IC50 against PC-3; for SI, PC-3 cells: SI = IC50 normal cells (HPAEpiC)/IC50 PC-3. Here is the method:
as §1, §2, §3, §4, §5, §6, §7, §8

For data set [4], the system named is HPAEpiC cells (pulmonary alveolar epithelial cells). As to the kind of experiment: MTT cytotoxicity assay, healthy HPAEpiC. The format is cell-based. As to conditions: Homo sapiens, Epithelial cell, 48 h, read-out: IC50 against HPAEpiC (healthy cells). Here is the method: as §1, §2, §3, §4, §5, §6, §7, §8

The IC50 is the concentration that gives 50% inhibition. One may read the melting point as the temperature of the solid-liquid transition. As for `O=C(/C=C/c1ccc(O)cc1)CCc1ccccc1` [Compound 5b, (E)-1-(4-hydroxyphenyl)-5-phenylpent-1-en-3-one], the melting point lay within 136 to 137 °C. For the same compound, in data set [1], the IC50 stood at 70.9 µM and the “SI, U87-MG cells” value was found to be 0.08. In data set [2], the “SI, MCF-7 cells” value is listed as 0.58. Moreover, the IC50 in data set [3] (Homo sapiens, PC-3, 48 h) is under 30 µM. For the same compound, in data set [3], the IC50 is 22 µM and the “SI, PC-3 cells” value worked out at 0.25. The IC50 in data set [4] worked out at 5.51 µM.

On to `COc1ccc(/C=C/C(=O)CCc2ccccc2)cc1` [Compound 5c, (E)-1-(4-methoxyphenyl)-5-phenylpent-1-en-3-one], for which the melting point lay in the range of 95 to 96 °C. Also, in data set [1], the IC50 amounted to 213 µM and the “SI, U87-MG cells” value is on record as 0.42. Moreover, in data set [2] (Homo sapiens, MCF7, 48 h), the IC50 was found to be 50.2 µM. The “SI, MCF-7 cells” value in data set [2] was found to be 1.84. The IC50 in data set [3] (Homo sapiens, PC-3, 48 h) was 439 µM. The “SI, PC-3 cells” value in data set [3] came to 0.21. For the same compound, the IC50 in data set [4] was determined as 92.3 µM.

`COc1cc(/C=C/C(=O)CCc2ccccc2)ccc1O` [Compound 5d, (E)-1-(4-hydroxy-3-methoxyphenyl)-5-phenylpent-1-en-3-one] registered a melting point of 89 to 90 °C. Besides, in data set [1], the 50% inhibitory concentration (IC50) stood at 31.9 µM and the “SI, U87-MG cells” value came to 0.45. In data set [2] (Homo sapiens, MCF7, 48 h), the IC50 is under 30 µM. Moreover, in data set [2], the IC50 came out at 27.8 µM and the “SI, MCF-7 cells” value worked out at 0.52. Besides, the IC50 in data set [3] (Homo sapiens, PC-3, 48 h) is under 30 µM. Further, in data set [3], the half-inhibitory concentration (IC50) is 20.9 µM and the “SI, PC-3 cells” value came to 0.69. Moreover, the concentration for half-maximal inhibition (IC50) in data set [4] was determined as 14.4 µM.

Consider `COc1ccc(/C=C/C(=O)CCc2ccccc2)cc1O` [Compound 5e, (E)-1-(3-hydroxy-4-methoxyphenyl)-5-phenylpent-1-en-3-one], for which the melting point fell in the range of 94 to 95 °C. In data set [1], the IC50 is 133 µM and the “SI, U87-MG cells” value is recorded as 0.20. Further, in data set [2] (Homo sapiens, MCF7, 48 h), the half-maximal inhibitory concentration (IC50) was under 30 µM. Moreover, in data set [2], the IC50 was 21.8 µM and the “SI, MCF-7 cells” value is recorded as 1.21. Also, the IC50 in data set [3] (Homo sapiens, PC-3, 48 h) worked out at 95.8 µM. In data set [3], the “SI, PC-3 cells” value turned out to be 0.28. Moreover, the concentration for half-maximal inhibition (IC50) in data set [4] amounted to 26.4 µM.

For `O=C(/C=C/c1ccc(O)c(O)c1)CCc1ccccc1` [Compound 5f, (E)-1-(3,4-dihydroxyphenyl)-5-phenylpent-1-en-3-one], the IC50 was 33.4 µM in data set [1]; 544 µM in data set [2] (Homo sapiens, MCF7, 48 h); 97.5 µM in data set [3] (Homo sapiens, PC-3, 48 h); 43.1 µM in data set [4]. In addition, the “SI, U87-MG cells” value in data set [1] stood at 1.29. Moreover, in data set [2], the “SI, MCF-7 cells” value was 0.08. Moreover, the “SI, PC-3 cells” value in data set [3] is recorded as 0.44.

On to `O=C(/C=C/c1ccccc1)CCc1ccc(O)cc1` [Compound 5g, (E)-5-(4-hydroxyphenyl)-1-phenylpent-1-en-3-one], for which the melting point is 96 to 97 °C. In data set [1], the IC50 came to 128 µM and the “SI, U87-MG cells” value was 0.17. For the same compound, the IC50 in data set [2] (Homo sapiens, MCF7, 48 h) is under 30 µM. Further, in data set [2], the IC50 stood at 16.2 µM and the “SI, MCF-7 cells” value was found to be 1.31. For the same compound, in data set [3] (Homo sapiens, PC-3, 48 h), the half-maximal inhibitory concentration (IC50) was 291 µM. Further, in data set [3], the “SI, PC-3 cells” value was determined as 0.07. Further, the IC50 in data set [4] is 21.1 µM.

In the case of `O=C(/C=C/c1ccc(O)cc1)CCc1ccc(O)cc1` [Compound 5h, (E) 1,5-bis(4-hydroxyphenyl)pent-1-en-3-one], the melting point is 146 to 147 °C. In data set [1], the 50% inhibitory concentration (IC50) is 358 µM and the “SI, U87-MG cells” value worked out at 0.14. Further, the half-maximal inhibitory concentration (IC50) in data set [2] (Homo sapiens, MCF7, 48 h) was under 30 µM. Besides, in data set [2], the IC50 was found to be 26.7 µM and the “SI, MCF-7 cells” value is reported as 1.92. For the same compound, in data set [3] (Homo sapiens, PC-3, 48 h), the IC50 came out at 437 µM. Moreover, the “SI, PC-3 cells” value in data set [3] was found to be 0.12. Further, the IC50 in data set [4] stood at 51.4 µM.

For `COc1cccc2c1C(=O)c1c(O)c3c(c(O)c1C2=O)C[C@@](O)(C(=O)CO)C[C@@H]3O[C@H]1C[C@H](N)[C@H](O)[C@H](C)O1` [DOX control (+), doxorubicin, reference compound], the IC50 in data set [1] turned out to be 8.95 µM; in data set [2] (Homo sapiens, MCF7, 48 h), 14.7 µM; in data set [3] (Homo sapiens, PC-3, 48 h), 6.76 µM; in data set [4], 64.4 µM. Besides, the “SI, U87-MG cells” value in data set [1] is 7.20. Also, in data set [2], the “SI, MCF-7 cells” value was 4.38. Further, the “SI, PC-3 cells” value in data set [3] came to 9.53.
